According to patent US9643964B2, “3-(2-aminopyrimidin-4-yl)-5-(3-hydroxypropynyl)-1H-pyrrolo[2,3-C]pyridine derivatives as NIK inhibitors for the treatment of cancer” (Janssen Pharmaceutica NV, priority 2013, dated 2017):
pEC50, pIC50: −log10 of the molar value.

Tests used:
[1] = system: P-IKKα levels in L363 cells; assay: Biological Assay B: effect of compounds on P-IKKα levels in L363 cells; format: cell-based; settings: Homo sapiens, L-363, averaged values, read-out: IKKα Cellular IC50
Method in brief: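 L363 cells pre-incubated 24 h with 1 μg/ml stock BAFF, then treated 2 h with compounds (8-point, 1:3 dilutions, 1% DMSO) at 37° C; P-IKKα in lysates measured by sandwich immunoassay. Blank (10 μM ADS125117) subtracted; IC50 from sigmoidal fit of % inhibition of MG132/BAFF control.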

LP-1 cells = assay: Biological Assay C: antiproliferative activity on LP-1 cells (CellTiter-Glo); format: cell-based, human; settings: Homo sapiens, LP-1, 72 h, 72 hr treatment; averaged values
Method in brief: (§1)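 Luminescent ATP signal (CellTiter-Glo) measures growth of myeloma cells following a 72 h compound treatment. Values for the time-zero blank are subtracted, and each mean of duplicate wells is given as percentage of the no-drug control.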

[2] = target: T1, Recombinant Human NF-kappaB-Inducing Kinase (NIK/MAP3K14) (Homo sapiens, UniProt Q99558); assay: Biological Assay A: inhibition of recombinant human NIK/MAP3K14 activity (MBP phosphorylation, Mesoscale); format: biochemical; settings: averaged over all measurements on all batches; read-out: Biochemical (MSD MBP) IC50
Method in brief: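 10 nM NIK with 25 μM ATP on MBP-coated plates in Tris pH 7.5 buffer with MgCl2, DTT and Na3VO4 and 1% DMSO, for 1 h at 25° C. Phospho-MBP was detected by anti-phospho-MBP and Sulfotag electrochemiluminescence; after blank subtraction, IC50 came from a sigmoidal fit of % inhibition.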

[3] = target: T1, Recombinant Human NF-kappaB-Inducing Kinase (NIK/MAP3K14); assay: Biological Assay A2: inhibition of auto-phosphorylation of recombinant human NIK/MAP3K14 (AlphaScreen); format: biochemical; settings: auto-phosphorylation; averaged over all measurements on all batches; read-out: αscreen IC50
Method in brief: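 AlphaScreen readout of anti-phospho-IKK Ser176/180 signal after 1 h, 25° C. incubation of 0.2 nM GST-NIK with compound and 25 microM ATP (Tris pH 7.5 buffer, MgCl2, 1% DMSO final). IC50 from sigmoidal fit of blank-corrected % inhibition against Log10 concentration.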

L-363 cells = assay: Biological Assay C: antiproliferative activity on L-363 cells (CellTiter-Glo); format: cell-based, human; settings: Homo sapiens, L-363, 72 h, 72 hr treatment; averaged values
Method in brief: as §1

JJN-3 cells = assay: Biological Assay C: antiproliferative activity on JJN-3 cells (CellTiter-Glo); format: cell-based, human; settings: Homo sapiens, JJN-3, 72 h, 72 hr treatment; averaged values
Method in brief: as §1

T1 sequence (Q99558 whole entry): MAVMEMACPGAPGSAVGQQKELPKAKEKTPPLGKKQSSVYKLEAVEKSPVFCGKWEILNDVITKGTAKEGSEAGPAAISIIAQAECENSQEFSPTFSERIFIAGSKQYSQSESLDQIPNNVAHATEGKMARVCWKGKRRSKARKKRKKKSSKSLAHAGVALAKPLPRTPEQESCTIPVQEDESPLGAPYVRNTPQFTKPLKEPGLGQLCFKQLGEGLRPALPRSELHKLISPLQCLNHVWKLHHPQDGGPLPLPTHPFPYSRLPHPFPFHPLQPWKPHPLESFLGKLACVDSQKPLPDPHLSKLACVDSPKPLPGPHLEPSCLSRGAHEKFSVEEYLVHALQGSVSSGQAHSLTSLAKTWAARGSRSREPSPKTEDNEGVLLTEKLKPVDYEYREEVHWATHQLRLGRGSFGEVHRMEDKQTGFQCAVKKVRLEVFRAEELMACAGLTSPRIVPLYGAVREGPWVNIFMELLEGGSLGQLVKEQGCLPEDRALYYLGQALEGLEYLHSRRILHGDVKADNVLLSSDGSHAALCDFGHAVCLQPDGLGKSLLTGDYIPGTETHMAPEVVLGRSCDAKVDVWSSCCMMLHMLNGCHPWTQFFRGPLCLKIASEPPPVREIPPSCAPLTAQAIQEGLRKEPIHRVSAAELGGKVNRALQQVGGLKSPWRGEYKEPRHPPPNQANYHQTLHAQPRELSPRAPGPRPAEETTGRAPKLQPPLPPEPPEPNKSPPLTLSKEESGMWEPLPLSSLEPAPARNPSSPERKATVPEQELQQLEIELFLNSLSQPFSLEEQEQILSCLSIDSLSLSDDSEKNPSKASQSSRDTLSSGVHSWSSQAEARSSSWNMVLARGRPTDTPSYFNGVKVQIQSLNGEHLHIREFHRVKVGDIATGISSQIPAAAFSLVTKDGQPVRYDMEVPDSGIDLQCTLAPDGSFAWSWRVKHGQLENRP

pIC50 [1]	pIC50 [2]	pIC50 [3]	Structure (SMILES)	pEC50 (LP-1 cells)	pEC50 (L-363 cells)	pEC50 (JJN-3 cells)
6.92	7.31	7.72	COCCn1cc(-c2ccnc(N)n2)c2cc(C#CC(C)(O)c3nccs3)ncc21 (stereo not drawn) [Compound 26]	4.82	4.96	5.25
6.05	7.77	7.07	CC(C)(O)Cn1cc(-c2ccnc(N)n2)c2cc(C#CC(C)(O)c3ccccc3)ncc21 (stereo not drawn) [Compound 36]	4.92	5.10	5.77
7.89	7.74	8.52	CC(C)(O)Cn1cc(-c2nc(N)ncc2Cl)c2cc(C#CC3(O)CC3)ncc21 [Compound 21]	5.55	7.13	7.18
5.42	6.80	6.72	CC(C)(O)C#Cc1cc2c(-c3ccnc(N)n3)cn(CC3CCNCC3)c2cn1 [Compound 114]	5.26	5.82	5.80
6.85	7.82	7.27	CC(C)(O)C#Cc1cc2c(-c3ccnc(N)n3)cn(C3COC3)c2cn1 [Compound 65]	5.15	6.40	6.33
6.80	7.12	7.38	CN1CC(n2cc(-c3ccnc(N)n3)c3cc(C#CC(C)(C)O)ncc32)C1 [Compound 34]	5.39	6.62	6.48
8.14	8.37	8.70	CC(C)n1cc(-c2nc(N)ncc2Cl)c2cc(C#CC(C)(C)O)ncc21 [Compound 16]	7.04	7.24	7.46
6.28	7.37	6.96	CC(C)C(C)(O)C#Cc1cc2c(-c3ccnc(N)n3)cn(CC(C)(C)O)c2cn1 (stereo not drawn) [Compound 40]	4.60	5.35	5.64
6.27	7.82	6.68	CC(C)(O)C#Cc1cc2c(-c3ccnc(N)n3)cn(CCN3CCOCC3)c2cn1 [Compound 7]	5.49	5.72	5.72
7.03	8.16	8.40	CC(C)(O)C#Cc1cc2c(-c3ccnc(N)n3)c[nH]c2cn1 [Compound 1]	5.49	6.74	6.70
7.77	8.31	8.22	CC(C)n1cc(-c2nc(N)ncc2Cl)c2cc(C#CC(C)(O)c3nccs3)ncc21 (stereo not drawn) [Compound 17]	5.10	6.09	6.34
8.10	8.48	9.00	CC(C)(O)C#Cc1cc2c(-c3nc(N)ncc3Cl)cn(CCO)c2cn1 [Compound 8]	5.57	6.60	7.03
7.44	7.60	7.68	COCCCn1cc(-c2ccnc(N)n2)c2cc(C#CC(C)(C)O)ncc21 [Compound 44]	5.77	6.40	6.60
7.28	8.38	7.80	CC(C)(O)Cn1cc(-c2nc(N)ncc2Cl)c2cc(C#CC3(O)CCCC3)ncc21 [Compound 33]	5.39	5.96	6.82
